Experimental data reported in patent publication US7906499B2, “Polycarboxylated porphyrins and use thereof in treatment of metal toxicities” (priority 2005, dated 2011).
Where “and” joins values, the source holds several entries; their conditions need not be identical. Equal entries are not always repeated.

Legend:
[1] = Absorption spectroscopy of porphyrin intermediates on addition of metal (metal binding), +Mn; set-up: key to Cpor 370 nm peak, change after metal addition / Cpor 500 nm peak, change after metal addition / Cpor 538 nm peak, change after metal addition / Cpor 560 nm peak, change after metal addition / Cpor 608 nm peak, change after metal addition / Upor 395 nm peak, change after metal addition / Upor 498 nm peak, change after metal addition / Upor 540 nm peak, change after metal addition / Upor 565 nm peak, change after metal addition / Upor 612 nm peak, change after metal addition: Dis; peak disappeared.; Inc; Peak increased.; Dec; peak decreased.; = indicates no difference from the control.; (a)indicates new peak
From the text: (§1) In the determining step, the individual is identified as subject to or predisposed to a polycarboxylated porphyrin-binding metal toxicity. Polycarboxylated porphyrin-binding metal toxicities include metal toxicity from environmental exposure, and disorders characterized by disturbances in metal ion homeostasis, particularly disorders that result in metal ion accumulation. Examples of such disorders include Wilson's disease, in which copper transport is defective (e.g. Nakayama, 2000); aceruloplasminemia, an iron metabolism disorder (e.g. Miyajima, 2003); and diseases involving metal-facilitated protein aggregation such as zinc, copper, or iron facilitated-aggregation of Aβ in Alzheimer's disease (e.g. Atamna, 2004), and aluminum, copper, iron, cobalt, or manganese facilitated-aggregation of α-synuclein in Parkinson's disease (e.g. Uversky, 2001). Conventional spectroscopy assays (e.g. Beer, 2003) can be used to determine whether a given polycarboxylated porphyrin binds the toxic metal of interest (e.g. Example 2, below). In particular embodiments, the metal is selected from the group consisting of Al^+++, Hg^++, […], Cu^+, Mn^+, and Zn^++.
(§2) We studied the interaction between metals and porphyrin intermediates.

[2] = Absorption spectroscopy of porphyrin intermediates on addition of metal (metal binding), +Cu; set-up: key to Cpor 370 nm peak, change after metal addition / Cpor 500 nm peak, change after metal addition / Cpor 538 nm peak, change after metal addition / Cpor 560 nm peak, change after metal addition / Cpor 608 nm peak, change after metal addition / Upor 395 nm peak, change after metal addition / Upor 498 nm peak, change after metal addition / Upor 540 nm peak, change after metal addition / Upor 565 nm peak, change after metal addition / Upor 612 nm peak, change after metal addition: Dis; peak disappeared.; Inc; Peak increased.; Dec; peak decreased.; = indicates no difference from the control.; (a)indicates new peak
From the text: as §1, §2

[3] = Absorption spectroscopy of porphyrin intermediates on addition of metal (metal binding), +Zn; set-up: key to Cpor 500 nm peak, change after metal addition / Cpor 538 nm peak, change after metal addition / Cpor 560 nm peak, change after metal addition / Cpor 608 nm peak, change after metal addition / Upor 498 nm peak, change after metal addition / Upor 540 nm peak, change after metal addition / Upor 565 nm peak, change after metal addition / Upor 612 nm peak, change after metal addition: Dis; peak disappeared.; Inc; Peak increased.; Dec; peak decreased.; = indicates no difference from the control.; (a)indicates new peak
From the text: as §1, §2

[4] = biological target: Aβ1-40 (Homo sapiens, UniProt P05067); assay: Dissolution / prevention of metal-induced Aβ aggregates (filtration, 6E10 immunodetection); format: biochemical; conditions: "we found", with reference to Atamna, 2004
Method: Aβ1-40 (10 ng in 200 μl) aggregation is induced by incubation (30 min, RT) with ZnCl2 (25 μM in TBS, pH 7.4), CuCl2 (5 μM in TBS, pH 6.8), or acidic conditions (pH 5.5, MES buffered saline). Aggregates are transferred to a 0.2μ nylon membrane by filtration using a 96-well ELIFA apparatus (Pierce). The aggregates are then washed (200 μl/well) with TBS alone, TBS containing 2 μM EDTA (control), or TBS with uroproporphyrin or coproporphyrin at varying concentrations (0.1 μM-1 mM). The membrane is fixed, probed with the anti-Aβ monoclonal antibody 6E10 (Senetek), and developed for exposure to ECL film. Quantification of retained, aggregated Aβ is performed by densitometry, calibrated against known amounts of the peptide.
Because metals, such as Zn++ and Cu+, trigger the pathologic aggregation of Aβ, an important causal factor in Alzheimers disease, we tested the ability of endogenous prophyrins to prevent Aβ aggregation using published methodology. […] The effect of porphyrins on Aβ is likely mediated by their ability to chelate metals. […] Endogenous porphyrins can be used directly, or their synthesis can be triggered in tissue by applying their precursors and/or cofactors, for therapeutic purposes including the treatment and prevention of disorders that involve Aβ aggregation and/or metal toxicity. […]

Aβ1-40, sequence (P05067 672-711 limits assumed): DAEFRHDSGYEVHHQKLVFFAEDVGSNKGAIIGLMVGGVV

Coproporphyrin III [Cpor]
Cpor 370 nm peak, change after metal addition [1]: =
Cpor 500 nm peak, change after metal addition [1]: =
Cpor 538 nm peak, change after metal addition [1]: =
Cpor 560 nm peak, change after metal addition [1]: =
Cpor 608 nm peak, change after metal addition [1]: =
Cpor 370 nm peak, change after metal addition [2]: =
Cpor 500 nm peak, change after metal addition [2]: =
Cpor 538 nm peak, change after metal addition [2]: Dec
Cpor 560 nm peak, change after metal addition [2]: Dec
Cpor 608 nm peak, change after metal addition [2]: Dis
New peak after metal addition (marked a) [2]: 525a nm
Cpor 500 nm peak, change after metal addition [3]: Dis
Cpor 538 nm peak, change after metal addition [3]: Inc
Cpor 560 nm peak, change after metal addition [3]: Inc
Cpor 608 nm peak, change after metal addition [3]: Dis
New peak after metal addition (marked a) [3]: 575a nm
Cpor 370 nm peak after metal addition (peak position) ([3]; control peak 370 nm): 400 nm

C=CC1=C(C)c2cc3[n-]c(cc4[n-]c(cc5nc(cc1n2)C(C)=C5C=C)c(C)c4CCC(=O)O)c(CCC(=O)O)c3C.[Fe+2] [heme]
Displacement of metals from aggregated Aβ and disaggregation [4]: displace metals from the aggregated Aβ and disaggregate the complex

O=C(O)CCC1=C(CC(=O)O)c2cc3[nH]c(cc4nc(cc5[nH]c(cc1n2)c(CC(=O)O)c5CCC(=O)O)C(CCC(=O)O)=C4CC(=O)O)c(CC(=O)O)c3CCC(=O)O [Upor, Uroporphyrin III]
New peak after metal addition (marked a) [1]: 460a nm and 545a nm and 575a nm
Upor 395 nm peak, change after metal addition [1]: Inc
Upor 498 nm peak, change after metal addition [1]: Dis
Upor 540 nm peak, change after metal addition [1]: Dis
Upor 565 nm peak, change after metal addition [1]: Dis
Upor 612 nm peak, change after metal addition [1]: Dis
New peak after metal addition (marked a) [2]: 525a nm
Upor 395 nm peak, change after metal addition [2]: Inc
Upor 498 nm peak, change after metal addition [2]: Dis
Upor 540 nm peak, change after metal addition [2]: Dis
Upor 565 nm peak, change after metal addition [2]: Inc
Upor 612 nm peak, change after metal addition [2]: Dis
New peak after metal addition (marked a) [3]: 575a nm
Upor 498 nm peak, change after metal addition [3]: Dis
Upor 540 nm peak, change after metal addition [3]: Inc
Upor 565 nm peak, change after metal addition [3]: Dis
Upor 612 nm peak, change after metal addition [3]: Dis
Upor 395 nm peak after metal addition (peak position) ([3]; control peak 395 nm): 405 nm
